These results are taken from patent publication US11426412B2, “Imidazo-pyridine compounds as PAD inhibitors” (JUBILANT EPIPAD LLC, priority 2017, dated 2022).

Where a name gives a salt, the structure may show the parent alone. Some results are limits rather than exact numbers.

The target in assay [1] is T1, PAD4 (Homo sapiens (Human), UniProt Q9UM07). The experiment in a line: Ammonia release biochemical assay (citrullination).
Procedure: Ammonia Release Biochemical Assay
Citrullination assay was detected via ammonia release. […] The reaction was stopped after 60 min by addition of stop/detection buffer containing 50 mM EDTA, 2.6 mM of o-phthaladehyde and 2.6 mM DTT.
The target of assay [2] is T1, PAD4. The experiment in a line: FP binding assay. The following applies: for actively inhibiting PAD4 enzyme activity, FP Binding assay: summary of Table 1.
Procedure: Binding of compounds with PAD4 was detected by FP assay. PAD4 was diluted to 1 uM in assay buffer (100 mM HEPES, 50 mM NaCl, 1 mM DTT, 5% Glycerol and 1 mM CHAPS) and added to wells containing various concentration of compounds or DMSO vehicle (1%) in a 384 well black plate. 10 nM of fluorescein labelled probe (JPAD-00085) was added to the plate.
Setting [3] is: Table 1, class A, read-out: IC50 value, ammonia release biochemical assay.
[4] abbreviates: read-out: NH3 release biochemical assay PAD4 IC50.

T1 sequence (Q9UM07 whole entry): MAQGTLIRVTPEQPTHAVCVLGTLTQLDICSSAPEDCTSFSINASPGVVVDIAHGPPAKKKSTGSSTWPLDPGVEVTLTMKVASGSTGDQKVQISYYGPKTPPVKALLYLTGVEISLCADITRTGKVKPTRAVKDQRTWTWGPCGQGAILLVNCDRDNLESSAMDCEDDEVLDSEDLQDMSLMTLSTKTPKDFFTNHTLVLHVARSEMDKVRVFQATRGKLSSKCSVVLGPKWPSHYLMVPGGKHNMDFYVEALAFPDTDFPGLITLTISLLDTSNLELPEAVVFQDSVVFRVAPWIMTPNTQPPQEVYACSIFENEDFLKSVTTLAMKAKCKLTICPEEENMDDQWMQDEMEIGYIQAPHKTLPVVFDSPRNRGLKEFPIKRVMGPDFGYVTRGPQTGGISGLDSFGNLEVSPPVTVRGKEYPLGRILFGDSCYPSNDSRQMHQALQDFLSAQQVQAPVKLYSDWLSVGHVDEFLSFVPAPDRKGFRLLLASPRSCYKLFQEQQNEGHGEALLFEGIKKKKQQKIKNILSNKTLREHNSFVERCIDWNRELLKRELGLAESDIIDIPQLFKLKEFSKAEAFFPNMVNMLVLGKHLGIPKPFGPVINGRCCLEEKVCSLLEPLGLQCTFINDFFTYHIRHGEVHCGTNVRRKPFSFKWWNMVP

For the compound `Cc1c(-c2cc3ccccc3n2Cc2ccc(F)cc2)nc2cc(C(=O)N3CCC[C@@H](N)C3)ccn12` [Compound 13, (R)-(3-Aminopiperidin-1-yl)(2-(1-(4-fluorobenzyl)-1H-indol-2-yl)-3-methylimidazo[1,2-a]pyridin-7-yl)methanone], the IC50 is no more than 1 µM in assay [1] (setting [3]), less than 1 µM in assay [1] (setting [4]) and less than 1 µM in assay [2]. Moreover, the “actively inhibiting PAD4 enzyme activity, FP Binding assay” value in assay [2] is given as “actively inhibiting PAD4 enzyme activity”.
Turning to `Cc1c(-c2cc3ccccc3n2Cc2ccccn2)nc2cc(C(=O)N3CCC[C@@H](N)C3)ccn12` [Compound 16, (R)-(3-Aminopiperidin-1-yl)(3-methyl-2-(1-(pyridin-2-ylmethyl)-1H-indol-2-yl)imidazo[1,2-a]pyridin-7-yl)methanone], the IC50 in assay [1] (setting [4]) and in assay [2] was less than 1 µM each time. The “actively inhibiting PAD4 enzyme activity, FP Binding assay” value in assay [2] is reported as “actively inhibiting PAD4 enzyme activity”.
For `COc1ccc2cc(-c3nc4cc(C(=O)N5CCC[C@@H](N)C5)ccn4c3C)n(CC3CC3)c2c1` [Compound 23, (R)-(3-Aminopiperidin-1-yl)(2-(1-(cyclopropylmethyl)-6-methoxy-1H-indol-2-yl)-3-methylimidazo[1,2-a]pyridin-7-yl)methanone], in assay [1] (setting [4]), the IC50 was less than 1 µM. Moreover, in assay [2], the IC50 is less than 1 µM and the “actively inhibiting PAD4 enzyme activity, FP Binding assay” value was “actively inhibiting PAD4 enzyme activity”.
As to `Cc1c(-c2cc3ccc(F)cc3n2CC2CC2)nc2cc(C(=O)N3CCC[C@@H](N)C3)ccn12` [Compound 28, (R)-(3-Aminopiperidin-1-yl)(2-(1-(cyclopropylmethyl)-6-fluoro-1H-indol-2-yl)-3-methylimidazo[1,2-a]pyridin-7-yl)methanone], the IC50 in assay [1] (setting [4]) and in assay [2] was less than 1 µM in each case.
For `Cc1c(-c2cc3cc(F)ccc3n2CC2CC2)nc2cc(C(=O)N3CCC[C@@H](N)C3)ccn12` [Compound 29, (R)-(3-Aminopiperidin-1-yl)(2-(1-(cyclopropylmethyl)-5-fluoro-1H-indol-2-yl)-3-methylimidazo[1,2-a]pyridin-7-yl)methanone], the IC50 in assay [1] (setting [4]) and in assay [2] was less than 1 µM each time.
Take `Cc1cccc2cc(-c3nc4cc(C(=O)N5CCC[C@@H](N)C5)ccn4c3C)n(CC3CC3)c12` [Compound 30, (R)-(3-Aminopiperidin-1-yl)(2-(1-(cyclopropylmethyl)-7-methyl-1H-indol-2-yl)-3-methylimidazo[1,2-a]pyridin-7-yl)methanone]: the IC50 in assay [1] (setting [4]) and in assay [2] was less than 1 µM in each case.
`N[C@@H]1CCCN(C(=O)c2ccn3c(-c4ccccc4)c(-c4cc5ccccc5n4CC4CC4)nc3c2)C1` [Compound 32, (R)-(3-Aminopiperidin-1-yl)(2-(1-(cyclopropylmethyl)-1H-indol-2-yl)-3-phenylimidazo[1,2-a]pyridin-7-yl)methanone]: the IC50 in assay [1] (setting [4]) and in assay [2] was greater than 10 µM in each case.
For `Cc1c(-c2cc3ccccc3n2Cc2ccsc2)nc2cc(C(=O)N3CCC[C@@H](N)C3)ccn12` [Compound 36, (R)-(3-aminopiperidin-1-yl)(3-methyl-2-(1-(thiophen-3-ylmethyl)-1H-indol-2-yl)imidazo[1,2-a]pyridin-7-yl)methanone], the IC50 in assay [1] (setting [4]) and in assay [2] was less than 1 µM in each case. Further, the “actively inhibiting PAD4 enzyme activity, FP Binding assay” value in assay [2] is given as “actively inhibiting PAD4 enzyme activity”.
Take `CCn1c(-c2nc3cc(C(=O)N4CCC[C@@H](N)C4)ccn3c2C)cc2cc(F)ccc21` [Compound 39, (R)-(3-aminopiperidin-1-yl)(2-(1-ethyl-5-fluoro-1H-indol-2-yl)-3-methylimidazo[1,2-a]pyridin-7-yl)methanone]: the IC50 in assay [1] (setting [3]) is no more than 1 µM; in assay [1] (setting [4]) it was less than 1 µM; in assay [2], less than 1 µM. Moreover, in assay [2], the “actively inhibiting PAD4 enzyme activity, FP Binding assay” value is recorded as “actively inhibiting PAD4 enzyme activity”.
In the case of `CCn1c(-c2nc3cc(C(=O)N4CCC[C@@H](N)C4)ccn3c2C)cc2ccc(F)cc21` [Compound 72, (R)-(3-aminopiperidin-1-yl)(2-(1-ethyl-6-fluoro-1H-indol-2-yl)-3-methylimidazo[1,2-a]pyridin-7-yl)methanone], the IC50 in assay [1] (setting [4]) is less than 1 µM.
Same read-out and setting: the value for `Cc1c(-c2cc3ccc(F)cc3n2CC(C)C)nc2cc(C(=O)N3CCC[C@@H](N)C3)ccn12` [Compound 73, (R)-(3-aminopiperidin-1-yl)(2-(6-fluoro-1-isobutyl-1H-indol-2-yl)-3-methylimidazo[1,2-a]pyridin-7-yl)methanone] was less than 1 µM; that for `Cc1c(-c2cc3cc(F)ccc3n2Cc2ccncc2)nc2cc(C(=O)N3CCC[C@@H](N)C3)ccn12` [Compound 74, (R)-(3-aminopiperidin-1-yl)(2-(5-fluoro-1-(pyridin-4-ylmethyl)-1H-indol-2-yl)-3-methylimidazo[1,2-a]pyridin-7-yl)methanone] was less than 1 µM.
For `COc1ccc(Cn2c(-c3nc4cc(C(=O)N5CCC[C@@H](N)C5)ccn4c3C)cc3cc(F)ccc32)cc1` [Compound 75, (R)-(3-aminopiperidin-1-yl)(2-(5-fluoro-1-(4-methoxybenzyl)-1H-indol-2-yl)-3-methylimidazo[1,2-a]pyridin-7-yl)methanone], the IC50 in assay [1] (setting [4]) was less than 1 µM.
For `Cc1c(-c2cc3cc(F)ccc3n2Cc2ccc(F)cc2)nc2cc(C(=O)N3CCC[C@@H](N)C3)ccn12` [Compound 76, (R)-(3-aminopiperidin-1-yl)(2-(5-fluoro-1-(4-fluorobenzyl)-1H-indol-2-yl)-3-methylimidazo[1,2-a]pyridin-7-yl)methanone], the IC50 in assay [1] (setting [4]) was less than 1 µM.
Turning to `Cc1c(-c2cc3cccc(Cl)c3n2Cc2ccc(F)cc2)nc2cc(C(=O)N3CCC[C@@H](N)C3)ccn12` [Compound 77, (R)-(3-aminopiperidin-1-yl)(2-(7-chloro-1-(4-fluorobenzyl)-1H-indol-2-yl)-3-methylimidazo[1,2-a]pyridin-7-yl)methanone], the IC50 in assay [1] (setting [4]) was less than 1 µM.
In the case of `Cc1c(-c2cc3ccccc3n2CC(F)F)nc2cc(C(=O)N3CCC[C@@H](N)C3)ccn12` [Compound 78, (R)-(3-aminopiperidin-1-yl)(2-(1-(2,2-difluoroethyl)-1H-indol-2-yl)-3-methylimidazo[1,2-a]pyridin-7-yl)methanone Trifluoroacetic Acid Salt], the half-maximal inhibitory concentration (IC50) in assay [1] (setting [4]) was less than 1 µM.
Regarding `Cc1c(-c2cc3ccccc3n2Cc2ccc(F)cn2)nc2cc(C(=O)N3CCC[C@@H](N)C3)ccn12` [Compound 79, (R)-(3-aminopiperidin-1-yl)(2-(1-((5-fluoropyridin-2-yl)methyl)-1H-indol-2-yl)-3-methylimidazo[1,2-a]pyridin-7-yl)methanone], in assay [1] (setting [4]), the IC50 is less than 1 µM.
As for `COc1ccc2cc(-c3nc4cc(C(=O)N5CCC[C@@H](N)C5)ccn4c3C)n(Cc3ccc(F)cc3)c2c1` [Compound 80, (R)-(3-aminopiperidin-1-yl)(2-(1-(4-fluorobenzyl)-6-methoxy-1H-indol-2-yl)-3-methylimidazo[1,2-a]pyridin-7-yl)methanone], the IC50 in assay [1] (setting [4]) is less than 1 µM.
Take `COc1ccc2cc(-c3nc4cc(C(=O)N5CCC[C@@H](N)C5)ccn4c3C)n(CC(C)C)c2c1` [Compound 82, (R)-(3-aminopiperidin-1-yl)(2-(1-isobutyl-6-methoxy-1H-indol-2-yl)-3-methylimidazo[1,2-a]pyridin-7-yl)methanone]: the IC50 is no more than 1 µM in assay [1] (setting [3]) and less than 1 µM in assay [1] (setting [4]).
The like results for `COc1ccc2cc(-c3nc4cc(C(=O)N5CCC[C@@H](N)C5)ccn4c3C)n(CC(F)F)c2c1` [Compound 83, (R)-(3-aminopiperidin-1-yl)(2-(1-(2,2-difluoroethyl)-6-methoxy-1H-indol-2-yl)-3-methylimidazo[1,2-a]pyridin-7-yl)methanone] were, in that order, no more than 1 µM and less than 1 µM.
The corresponding values for `COc1cc(Cn2c(-c3nc4cc(C(=O)N5CCC[C@@H](N)C5)ccn4c3C)cc3ccccc32)ccc1F` [Compound 85, (R)-(3-aminopiperidin-1-yl)(2-(1-(4-fluoro-3-methoxybenzyl)-1H-indol-2-yl)-3-methylimidazo[1,2-a]pyridin-7-yl)methanone] are no more than 1 µM and less than 1 µM.

For orientation: IC50 means the concentration that gives 50% inhibition.
